Test results: patent publication US10071103B2, “Treatments for resistant acne” (VYOME BIOSCIENCES PVT. LTD., priority 2014, dated 2018)
Values after ≈ are worked out from the molar mass of the structure shown. Like-named read-outs stand apart in the source and are kept apart here.

How the values were obtained:
[1] = tested on: P. acnes clinical isolates; test: MIC of P. acnes isolated from acne patients (clinical isolates); conditions: Cutibacterium acnes, clinical isolate susceptible to clindamycin and erythromycin;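 note: anaerobic 96-well plate assay at 37 °C over 72 h, with Alamar blue dye as read-out; MIC in µg/mL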
Experimental: P. acnes were cultured in Brain Heart Infusion Agar (BHIA) at 37° C. for 48 hours under anaerobic condition. […] For bacterial inoculum, P. acnes culture turbidity was adjusted to 0.5 McFarland standard (approximately 1.5×10^8) and further diluted (100 times with sterile BHI broth). Diluted P. acnes suspension (100 μl) was added to each well except sterility control wells (column 12 of 96 well plate). Inoculated plates were incubated at 37° C. for 72 hours under anaerobic condition. After incubation, MIC was determined by adding Alamar blue dye.

P. acnes MTCC 1951 [2] = assay type: cell-based, Propionibacterium acnes; conditions: for MPC: P. acnes, 10^10 cells inoculum; for MPC/MIC: ratio against P. acnes
Experimental: 3 to 4 Petri plates containing 48 h P. acnes culture was suspended in sterile Phosphate buffer saline, PBS (pH 7.2) and turbidity was adjusted to optical density of 1 at 600 nm (10^9 cells/ml). 50 ml of this culture suspension was centrifuged at 4000 rpm for 40 min. The supernatant was discarded and pellet resuspended in 250 μl of sterile PBS. 50 μl of these cell suspensions (10^10 cells) was spread over the plates containing various concentrations of antibiotics (around MIC range). Plates were incubated at 37° C. for 48 h and the lowest concentration of the drug that allowed no growth was taken as its MPC.

P. acnes MTCC 1951 [3] = test: MIC by micro broth dilution (Alamar blue), clindamycin-susceptible P. acnes; assay type: cell-based, Propionibacterium acnes; conditions: Cutibacterium acnes, MTCC1951; Table 7; against P. acnes; read-out: MIC
Experimental: (§1) The plates were incubated at 37° C. for 48 h under anaerobic condition for P. acnes and 37° C. for 24 h for S. aureus The plates were read under Bio-Rad plate reader at 595 nm for optical density to generate the dose-response curves. The MIC of the test compound was recorded by addition of Alamar blue dye.
(§2) P. acnes (MTCC 3297, MTCC 1951& CCARM 9010) are cultured in Brain Heart Infusion (BHI) Broth at 37° C. for 48-72 h under anaerobic condition. The test compounds/formulations are initially diluted with suitable solvent and further diluted with BHI broth to get the required concentrations. Samples (100 μl) of different concentrations (prepared by serial dilution) are added to 96-well plate. To the wells, 100 μl of P. acnes BHI broth culture is added [culture turbidity adjusted against 0.5 McFarland standard (approx 1.5×10^8), and further diluted 100-fold with sterile BHI broth]. In addition Growth Control and Sterility Control are created using 100 μl each of P. acnes BHI broth culture and plain BHI broth, respectively.
(§3) Plates are incubated at 37° C. for 48-72 hrs under anaerobic condition. The plate is read under Bio-Rad plate reader @ 595 nm for optical density to generate the dose-response curves. The MIC of the test compound is recorded by addition of Alamar blue dye.
BHI broth and BHI agar media were prepared as per the manufacturer's instruction and autoclaved at 121° C. for 15 minutes. […] For MIC determination testing, gels are dissolved in the solvent and further diluted with BHI broth. Then, 96 wells plate are filled with 100 μl of BHI broth containing drug with different concentration to get the final concentrations of 0.06, 0.13, 0.25, 0.5, 1 and 2 μg/ml in different lanes (lane 1 to lane 6). Remaining lanes of the 96 well plate are used as growth control and sterility control. Finally, P. acnes culture suspension (approx 1.5×10^6) is added in all the wells except sterility control wells and plate is incubated at 37° C. for 48-72 h under anaerobic condition. At the end of 72 h, Alamar blue solution (20 μl) is added into the wells and incubated at 37° C. for 2 h. Plate is visualized for bacterial inhibitions and MIC values of the tested samples are determined. […]

P. acnes CCARM 9010 = test: MIC by micro broth dilution (Alamar blue), clindamycin-resistant/nonresponsive P. acnes; assay type: cell-based, Propionibacterium acnes; conditions: clindamycin-nonresponsive CCARM 9010
Experimental: as §1, §2, §3

SMILES: CN(C)c1ccc(O)c2c1C[C@H]1C[C@H]3[C@H](N(C)C)C(O)=C(C(N)=O)C(=O)[C@@]3(O)C(O)=C1C2=O [Minocycline, minocycline]
- MIC ([1]; P. acnes strain V2-9): 0.06 µg/mL
- MIC ([1]; P. acnes strain V2-10): 0.06 µg/mL
- MIC ([1]; P. acnes strain V3-9): 0.06 µg/mL
- MIC ([1]; P. acnes strain V3-10): 0.06 µg/mL
- MIC ([1]; P. acnes strain V4-6): 0.06 µg/mL
- MIC ([1]; P. acnes strain V4-8): 0.06 µg/mL
- MIC ([1]; P. acnes strain V4-13): 0.06 µg/mL
- MIC ([1]; P. acnes strain V5-2): 0.06 µg/mL
- MIC ([1]; P. acnes strain V5-5): 0.06 µg/mL
- MIC ([1]; P. acnes strain V5-7): 0.06 µg/mL
- MIC ([1]; P. acnes strain V6-5): 0.06 µg/mL
- MIC ([1]; P. acnes strain V6-6): 0.06 µg/mL
- MIC ([1]; P. acnes strain V6-7): 0.06 µg/mL
- MIC ([1]; P. acnes strain V7-3): 0.06 µg/mL
- MIC ([1]; P. acnes strain V7-4): 0.06 µg/mL
- MIC ([1]; P. acnes strain V7-14): 0.06 µg/mL

SMILES: CC1CCc2c(N3CCC(O)CC3)c(F)cc3c(=O)c(C(=O)O)cn1c23 (stereo not drawn) [Nadifloxacin]
- MPC (P. acnes MTCC 1951 [2]): 1.2 µg/mL
- MPC/MIC (P. acnes MTCC 1951 [2]): 9.2
- MPC/MIC (P. acnes MTCC 1951 [2]; listed as nadifloxacin): ~8
- MIC (P. acnes MTCC 1951 [3]): 0.13 µg/mL (≈ 0.361 µM)

SMILES: CC[C@H]1OC(=O)[C@H](C)[C@@H](O[C@H]2C[C@@](C)(OC)[C@@H](O)[C@H](C)O2)[C@H](C)[C@@H](O[C@@H]2O[C@H](C)C[C@H](N(C)C)[C@H]2O)[C@](C)(O)C[C@@H](C)/C(=N\OCOCCOC)[C@H](C)[C@@H](O)[C@]1(C)O [Roxithromycin]
- Activity / bacterial killing, dose response curve (in words) (P. acnes CCARM 9010): resistant

SMILES: CC1Sc2c(C(=O)O)c(=O)c3cc(F)c(N4CCNCC4)cc3n21 (stereo not drawn) [Ulifloxacin]
- MPC (P. acnes MTCC 1951 [2]): 1.2 µg/mL
- MPC/MIC (P. acnes MTCC 1951 [2]): 9.2
- MIC (P. acnes MTCC 1951 [3]): 0.13 µg/mL (≈ 0.372 µM)
